From patent publication US20070202079A1, “Therapeutic compositions and methods useful in modulating protein tyrosine phosphatases” (priority 2006, published 2007)

Tests used:
[1] = system: human prostate carcinoma DU145 xenografts; assay: DU145 xenografts in nude mice; type: in vivo; details: daily 440 mg/kg
Protocol: Nude mice bearing WM9 or DU145 xenografts were treated with IFN-alpha (500,000 U, s.c., daily), sodium stibogluconate (12 mg Sb, s.c., daily) or both. […] The dosage of sodium stibogluconate corresponds to approximately 440 mg Sb/kg body weight (average mouse body weight 27 g), substantially higher than the standard therapeutic dose of 20 mg Sb/kg and the high dose (143 mg Sb/kg) that was clinically used by accident without serious toxicity. This dose of sodium stibogluconate was based on a previous observation in a pilot study that mice could tolerate daily dose of 20 mg Sb (approximately 700-800 mg Sb/kg). […]
For each of the cell lines, each of 16 mice received subcutaneous injection at the chest area of 3×10^6 cells/site (WM9) or 2×10^6 cells/site (DU145), two sites/mouse, on day 0. […] Tumor size was measured with a caliper to determine the two perpendicular diameters of each tumor. Tumor volume was calculated using the method of the NCI (length×width 2 in millimeters/2=volume in cubic millimeters).
Athymic nude mice (nu/nu, NCR), 4 weeks old (Taconic), were inoculated (s.c.) in the flanks with DU145 cells (3×10^6 cells/site) on day 0. […] Tumor volume was measured and calculated using the formula for a prolate spheroid (V=4/3 7 a^2b) (Lindner, et al. 1997). […]

Hey = assay: HEY cell growth, MTT; type: cell-based, human; details: 100 μg/ml, day 6
Protocol: (§1) NIH3T3 (Yi, et al., Blood 85, 87 (1995)), WM9 (Forsberg, et al., Proc. Nat. Acad Sci. USA 90, 393 (1993)), DU145 (Mickey, et al., Cancer Res. 37, 4049 (1977)), LoVo (Drewinko, et al., Cancer Res. 36, 467 (1976)), HEY (Buick, et al., Cancer Res. 45, 3668 (1985)), U251 (Yoshida, et al., Cancer 50, 410 (1982)), A549 (Giard, et al., J. Natl. Cancer Inst. 51, 1417 (1973)) and SK-N-SH (Helson, et al., Cancer Res. 35, 2594 (1975)) cell lines have been described and were cultured in RPMI 1640 supplemented with 10% fetal calf serum (FCS). For measurement of sodium stibogluconate effects on cell growth in vitro, cells were cultured in the absence (−) or presence (+) of various amounts of sodium stibogluconate for 6 days with viable cells quantified by MTT assays (Mosmann, J. Immunol. Methods 65, 55 (1983)). Percentages of growth inhibition by sodium stibogluconate were calculated (.+−.x%).

A549 = A549 cell growth, MTT; type: cell-based, human; details: 100 μg/ml, day 6
Protocol: as §1

[2] = system: WM9 PRL-1R86 transfectant; assay: growth of WM9 PRL-1R86 transfectant, MTT; type: cell-based, human; details: 50 or 100 μg/ml, 6 days
Protocol: as §1
The effects of sodium stibogluconate on intracellular PTPases were assessed using NIH3T3 or WM9 transfectants. NIH3T3 or WM9 cells were transfected with the pBabepuro vector (V) or pBabepuro expression constructs of Flag-tagged PRLs using Lipofectamine (BRL) following the manufacturer's procedures. […]

DU145R cells = assay: DU145R cell growth, MTT; type: cell-based, human; details: day 6 culture
Protocol: DU145 cells were cultured in the presence of sodium stibogluconate (100 μg/ml) in 48 well plates for 3 weeks. Cells from a well containing a single colony were transferred to flasks, cultured in sodium stibogluconate-free medium for 3 weeks and used as DU145R cells for further characterization. Growth of DU145R cells in the absence or presence of sodium stibogluconate in day 6 culture was determined by MTT assays. cDNAs of the coding region of PRLs were derived by RT-PCR from DU145 and DU145R cells and sequenced using primers described below.

SK-N-SH = SK-N-SH cell growth, MTT; type: cell-based, human; details: 100 μg/ml, day 6
Protocol: as §1

WiT49-N1 = WiT49-N1 cell growth, MTT; type: cell-based, human; details: day 6
Protocol: (§2) For cell proliferation assays, cells were grown in 10% FCS culture medium containing various amounts of IFNs and/or sodium stibogluconate in 96 well plates and cultured at 37° C. for 3 or 6 days as indicated. The numbers of viable cells in proliferation assays were determined by MTT assays as described in Phatak et al., J. Immunol. 167, 3391 (2001).

DS cells = assay: DS cell growth, MTT; type: cell-based, human; details: day 3; IFN-alpha 1,000 u/ml or sodium stibogluconate by itself
Protocol: as §2

[3] = standard dosage 10-20 mg/kg/day; cited from earlier work

O.O.O.O.O.O.O.O.O.O=C([O-])[C@@H]1[O][Sb]2([O-])([O][Sb]34([OH])[O][C@H]([C@H](O)CO)[C@H]([O]3)[C@H](C(=O)[O-])[O]4)[O][C@H]([C@H](O)CO)[C@@H]1[O]2.[Na+].[Na+].[Na+] [sodium stibogluconate]
toxicity in DU145 tumor mice [1]: no obvious toxicity
cell killing of Hey (Hey): near-complete cell killing
cell killing of A549 (A549): near-complete cell killing
growth inhibition of R86 cells [2]: only modest growth inhibition
growth of DU145R versus parental DU145 in presence of drug (DU145R cells): growth resistance
cell killing of SK-N-SH (SK-N-SH): near-complete cell killing
WiT49-N1 growth inhibition activity with IFN-alpha (WiT49-N1): not enhanced by IFN-alpha
DS cell growth (DS cells): modest activity
serum levels [3]: ≥ 10000 ng/mL
